Values of other authors, collected in article PMC3734799 (ChemMedChem, 2011).

Biological target: YopH (Yersinia pestis, UniProt O68720)
Sequence (O68720 164-468 limits assumed): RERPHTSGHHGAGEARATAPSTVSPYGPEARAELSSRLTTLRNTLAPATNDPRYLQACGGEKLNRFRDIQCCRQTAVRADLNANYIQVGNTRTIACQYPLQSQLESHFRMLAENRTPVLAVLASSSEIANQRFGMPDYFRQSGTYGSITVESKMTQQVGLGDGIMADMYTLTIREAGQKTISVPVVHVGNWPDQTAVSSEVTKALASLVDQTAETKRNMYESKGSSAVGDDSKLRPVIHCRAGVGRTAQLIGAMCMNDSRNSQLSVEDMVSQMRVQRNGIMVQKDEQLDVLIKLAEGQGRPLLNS

## O=[N+]([O-])c1ccc(OP(=O)(O)O)cc1-c1ccccc1 [compound 1, 6-nitro-[1,1'-biphenyl]-3-yl dihydrogen phosphate]
  Km: 80 µM
